From US20130089591A1, “Compositions” (Givaudan SA, priority 2010, published 2013)

Legend:
[1] = Aggregation of polyamide capsules (Example 2 method); assay type: physicochemical; design: key to Encapsulation, No precursor (scale of aggregation) / Encapsulation, With precursor (scale of aggregation): ∘: no aggregation of the capsules; +: aggregation of few capsules together only visible under microscopy; ++: aggregates of mm size; +++: important aggregation; ++++: aggregation is such that a cake is obtained; conditions: for Encapsulation, No precursor (scale of aggregation): free aldehyde as phase B at 5% in phase A of Table 1; for Encapsulation, With precursor (scale of aggregation): precursor of the aldehyde (Method 1.1) as phase B at 5% in phase A of Table 1
Procedure: An oil phase was prepared by dissolving isophtahaloyl dichloride (Fluka) in oil (oil composition specified in the examples below) at a level of 10%
An aqueous solution (Solution S1) was prepared by dissolving a polyvinyl alcohol Mowiol 4-88 (Kuru ray) in water at a level of 1%.
An aqueous solution (Solution S2) was prepared when triethylentetraamine (Hunstman) was diluted in water at a level of 3%.
100 g of the oil phase was mixed with 450 g of solution S1 to form an oil-in-water emulsion in a 1 L reactor equipped with a MIG stirrer operating at 1000 rpm. After 5 minutes of mixing, 450 g of solution S2 was slowly added. The resultant slurry of polyamide capsules was kept under stirring for 2 H.
Two capsule populations were formed. A first encapsulating IPM (isopropyl myristate) and a second containing IPM+5% of ethyl vaniline. The capsules were made according to the method of Example 2.
The methodology of Example 2 was applied to encapsulate different perfume oils described as phase A (non aldehyde raw materials) and phase B (aldehyde raw materials).
The phase B was added at 5% to the phase A prior to encapsulation. Different compositions of phase B have been used corresponding each time to a single aldehyde perfume molecule or to its precursor formed according to the methodology of Method 1.1, above.
According to the condition of the slurry a scale of aggregation has been defined as follows: […]
(§1) ∘ no aggregation of the capsules + aggregation of few capsules together only visible under microscopy ++ aggregates of mm size +++ important aggregation ++++ aggregation is such that a cake is obtained

[2] = Aggregation of polyurea capsules, Method 5.1; assay type: physicochemical; conditions: for Encapsulation (aggregation): free aldehyde at 5% in IPM
Procedure: An oil phase was prepared by adding Desmodur W (Isocyanate from Bayer) to a perfume oil at a level of 16.6%.
An aqueous phase (solution S1) was prepared by adding Luviskol k90 (BASF) to water, at a level of 4.5%. The pH of the solution was adjusted to 11.5 by addition of NaOH at 10%.
An aqueous phase (Solution S2) was prepared when Lupasol PR8515 (BASF) was added to water, at a level of 10%.
300 g of the oil phase was mixed with 500 g of solution S1, to form an oil-in-water emulsion, in a 1 L reactor equipped with a MIG stirrer operating at 1000 rpm.
After 30 minutes of mixing, 200 g of solution S2 was added over a period of 1 minute.
After 30 minutes, the slurry was heated up to 70° C. (1 H), then kept for 2 H at 70° C., then heated to 80° C. and kept for 1 H at 80° C., then heated to 85° C. and kept for 1 H at 85° C., then cooled to 70° C. and kept for 1 H at 70° C. before final cooling at 25° C.
The Method 5.1 of Example 5 was applied to encapsulate different perfume oils described as phase A (non aldehyde raw materials) and phase B (aldehyde raw materials).
In the following trials, phase A was IPM and phase B was aldehyde perfume molecules. Phase B was added at a level of 5% in phase A.
Phase B contains aldehyde C11 iso or the corresponding precursor prepared according to Method 1.1.
Phase B was added at a level of 5% in phase A.

[3] = Water solubility of the aldehyde
[4] = Aggregation of polyurea capsules, Method 5.6; assay type: physicochemical; design: key: ∘: no aggregation of the capsules; +: aggregation of few capsules together only visible under microscopy; ++: aggregates of mm size; +++: important aggregation; ++++: aggregation is such that a cake is obtained; conditions: polyurea Method 5.6, phase A of Table 1; for Encapsulation, No precursor (scale of aggregation): free aldehyde as phase B; for Encapsulation, With precursor (scale of aggregation): precursor (Method 1.1) as phase B
Procedure: An oil phase was prepared when Desmodur VL R20 (Bayer) was added in perfume oil at a level of 2.5%.
An aqueous phase (Solution S1) was prepared when Mowiol 4-88 (Kururay) was added in water, at a level of 0.1%.
An aqueous phase (Solution S2) was prepared when diethylentriamine (Merck) was added in water, at a level of 2%.
100 g of oil phase was mixed with 250 g of solution S1, to form an oil-in-water emulsion, in a 500 mL vessel equipped with a propeller operating at 1000 rpm.
After 10 min of stirring, 50 g of solution S2 was added.
The slurry was stirred for 4 h at room temperature.
The Method 5.6 of Example 5 was applied to encapsulate different perfume oils described as phase A (non aldehyde raw materials) and phase B (aldehyde raw materials).
The composition of Phase A is described in Table 1. Phase B is an aldehyde perfume molecule used as such or as its precursor form prepared according to Method 1.1.
According to the aspect of the slurry a scale of aggregation has been defined as follow: […]
as §1

[5] = Aggregation of polyurea capsules, Method 5.5; assay type: physicochemical; design: key: ∘: no aggregation of the capsules; +: aggregation of few capsules together only visible under microscopy; ++: aggregates of mm size; +++: important aggregation; ++++: aggregation is such that a cake is obtained; conditions: polyurea Method 5.5, phase A of Table 1; for Encapsulation, No precursor (scale of aggregation): free aldehyde as phase B; for Encapsulation, With precursor (scale of aggregation): precursor (Method 1.1) as phase B
Procedure: An oil phase was prepared when Desmodur W and Desmodur N3300 (Bayer) were added in perfume oil at a level of 2.2% and 13% respectively.
An aqueous phase (Solution S1) was prepared when Gantrez AN119 (ISP) was added to water, at a level of 1.6%. The solution was heated at 70° C. for 10 min to disperse the polymer.
An aqueous phase (Solution S2) was prepared when Ethylene diamine (Merck) was added to water, at a level of 7.5%.
30 g of the oil phase was mixed with 80 g of solution S1, to form an oil-in-water emulsion, in a 250 mL vessel equipped with a propeller operating at 1000 rpm.
After 10 min of stirring, 20 g of solution S2 was added.
The slurry was stirred for 30 min at room temperature, then heated to 60° C. and stirred for 3 H at 60° C. before cooling.
The Method 5.5 of Example 5 was applied to encapsulate different perfume oils described as phase A (non aldehyde raw materials) and phase B (aldehyde raw materials).
The composition of Phase A was described in Table 1 above. Phase B is an aldehyde perfume molecule used as such or as its precursor form prepared according to Method 1.1.
According to the aspect of the slurry a scale of aggregation was defined as follow: […]
as §1
Phase B was added at a level of 20% of aldehyde in phase A.

| Molecule | Encapsulation, No precursor (scale of aggregation) [4] | Encapsulation, With precursor (scale of aggregation) [4] | Water solubility ([3]; Table of Example 13) | also measured |
| --- | --- | --- | --- | --- |
| CCOc1cc(C=O)ccc1O [ethyl vaniline] |  |  |  | Aggregation, microscopic examination ([1]; IPM + 5% aldehyde): significant aggregation |
| CC(C)c1cccc(C(C)CC=O)c1 (stereo not drawn) [Florhydral] |  |  |  | Encapsulation (aggregation) [2]: Aggregation; Water solubility ([3]; Table 3): 51 ppm |
| COc1ccc(C=O)cc1 [Aubepine para cresol] |  |  |  | Encapsulation, No precursor (scale of aggregation) [1]: ++; Encapsulation, With precursor (scale of aggregation) [1]: ∘; Water solubility ([3]; Table 2): 6 ppm |
| CCCCCC=O [Capronaldehyde (hexanal)] | ++++ | ∘ |  |  |
| CCCCCCCCCC(C)C=O (stereo not drawn) [Aldehyde C12 mna] | ∘ | ∘ |  | Encapsulation, No precursor (scale of aggregation) [1]: ++; Encapsulation, With precursor (scale of aggregation) [1]: ∘; Encapsulation, No precursor (scale of aggregation) [5]: ∘; Encapsulation, With precursor (scale of aggregation) [5]: ∘ |
| O=C/C=C/c1ccccc1 [Cinnamic ald] | + | ∘ | 1900 ppm |  |
| CC1(C)C2CC=C(CCC=O)C1C2 (stereo not drawn) [Pino acetaldehyde] | ++++ | ∘ | 86 ppm |  |
| CC(C)c1ccc(C=O)cc1 [Cuminic ald] | ++ | ∘ | 280 ppm |  |
| CC(CC=O)CC(C)(C)C (stereo not drawn) [Ald C9 isononylic] | +++ | ∘ | 160 ppm |  |
| CC1(C)CCCC2=C1CC(C=O)CC2 (stereo not drawn) [Cyclomyral] | ∘ | ∘ |  |  |
| CCCCCCCCCCCC=O [Aldehyde C12 laurique] | ++++ | ∘ |  | Encapsulation, No precursor (scale of aggregation) [1]: +++; Encapsulation, With precursor (scale of aggregation) [1]: ∘; Encapsulation (aggregation) [2]: Aggregation; Encapsulation, No precursor (scale of aggregation) [5]: ++; Encapsulation, With precursor (scale of aggregation) [5]: ∘ |
| CCCCCC/C(C=O)=C\c1ccccc1 [Hexyl cinnamic ald] | + | ∘ | 2 ppm |  |
| CC(C)(O)CCCC1=CCC(C=O)CC1 (stereo not drawn) [Cyclohexal] | ∘ | ∘ |  |  |
| CCCCCCCCCC=O [Aldehyde C10] | ++++ | ∘ | 61 ppm | Encapsulation, No precursor (scale of aggregation) [1]: +++; Encapsulation, With precursor (scale of aggregation) [1]: +; Encapsulation (aggregation) [2]: Aggregation; Encapsulation, No precursor (scale of aggregation) [5]: +++; Encapsulation, With precursor (scale of aggregation) [5]: ∘; Water solubility ([3]; Table 2): 61 ppm; Water solubility ([3]; Table 3): 61 ppm; Water solubility ([3]; Table of Example 11): 61 ppm |
| Aldehyde iso C11 |  |  |  | Encapsulation, No precursor (scale of aggregation) [1]: +++; Encapsulation, With precursor (scale of aggregation) [1]: +; Slurry aspect ([2]; phase B at 5% in phase A of Table 4, listed as Aldehyde C11 iso): Cake; Slurry aspect ([2]; phase B at 5% in phase A of Table 4, listed as aldehyde C11 iso): aggregate; Water solubility ([3]; Table 2): 30 ppm |

Continued, in another order:

| Encapsulation, No precursor (scale of aggregation) [4] | Encapsulation, With precursor (scale of aggregation) [4] | Water solubility ([3]; Table of Example 13) | Molecule | also measured |
| --- | --- | --- | --- | --- |
| ∘ | ∘ | 100 ppm | CC(CC=O)CCc1ccccc1 (stereo not drawn) [Mefranal] |  |
| +++ | ∘ | 1800 ppm | CC(CC=O)CCCC(C)(C)O (stereo not drawn) [Hydroxycitronellal] | Encapsulation (aggregation) [2]: Aggregation; Encapsulation, No precursor (scale of aggregation) [5]: ++++; Encapsulation, With precursor (scale of aggregation) [5]: ∘; Water solubility ([3]; Table 3): 1800 ppm; Water solubility ([3]; Table of Example 11): 1800 ppm |
| ++ | ∘ |  | COC1CC2CC1C1CC(C=O)CC21 (stereo not drawn) [Scentenal] |  |
| + | + | 650 ppm | CC(C=O)c1ccccc1 (stereo not drawn) [Hydratropic ald] |  |
| ∘ | ∘ | 580 ppm | C/C(C=O)=C\c1ccccc1 [Methyl cinnamic ald] |  |
| ++++ | ∘ | 344 ppm | CC(C)=CCCC(C)C=O (stereo not drawn) [Melonal, 2,6-dimethyl-5-heptenal] |  |
